# Assay results taken from patent US5750332A, “Peptomers with enhanced immunogenicity” (priority 1995, dated 1998).
# “And” between values parts separate entries of the source, which are not always exact repeats. Equal values may be shown once. Read-outs that look alike come from different tables or passages of the source. Where no end group is shown, it is not given here.
# What was measured:
# [1] = system: antisera from HIV infected individuals; assay: ELISA of serum samples on plates coated with peptide or peptomer; format: binding; conditions: for ELISA Titer of serum sample: 1 μg/well coated
# Method: Standard ELISA methods were used in these experiments. Briefly, 96-well polystyrene plates were coated with 1 μg/well of peptide or peptomer. The peptide found 9/27 (33%); the peptomer found 26/27 (96%); 1/10 (10%) false positive with the peptomer.
# [2] = Circular dichroism spectroscopy, degree of α-helicity; format: physicochemical; conditions: for helix content: circular dichroism, analysis according to Provencher et al.
# Source text: Circular dichroism spectroscopy was used to determine the degree of α-helicity of the peptomer and the peptide from which it was derived. […] In this case, the peptide contains 8±7% helix, while the peptomer has 31±1%. This establishes that by polymerizing the peptide, the peptomer achieves a conformation that is not favored for the free peptide monomer.
# Using circular dichroism spectroscopy as described in Example 5, above, the degree of α-helicity of the peptide (419-436) with and without detergent was determined.
# [3] = target: CD4 (Homo sapiens, UniProt P01730); assay: Binding of peptide monomer to CD4 in the presence of detergent
# [4] = target: recombinant soluble gp120 (Human immunodeficiency virus type 1 group M subtype B, UniProt P05877); conditions: rabbit antibodies, dot blot assay
# Method: The dot blot assays were carried as follows. Peptomers in H2 O were spotted onto nitrocellulose paper. The nitrocellulose was then blocked with 3% bovine serum albumin in tris-buffered saline (TBS) pH 7.4 for 1 hour, then treated with 1 μg/ml biotinylated rsCD4 (Genentech, South San Francisco, Calif.) for 3 hours in a buffer containing TBS and 0.1% Tween 20. The nitrocellulose was then treated with a 1:750 dilution of streptavidin-horseradish peroxidase conjugate and developed.
# [5] = Solubility of the peptomer; format: physicochemical
# Method: b) Polymerization of the peptide monomers to form peptomer (419-436) The peptide polymers were prepared by dissolving 5 mg of the N-bromoacetyl cysteine-containing peptides in 1.0 ml of deoxygenated 0.5M NaHCO3 or 0.1M NaHPO4, pH 7.0-7.5 buffer and stirring these solutions under N2 for 5-12 hours at 25° C. […] They are soluble in 10% acetic acid at less than about 1mg/ml.
# The peptomer used in the experiments described in this Example was prepared without a lyophilization step.
# [6] = system: MN isolate of HIV1; assay: In vitro neutralization assay with rabbit antisera; format: cell-based; conditions: rabbit antibodies, Freund's adjuvant, HIV-1 MN in vitro
# Method: HIV-1 MN isolate was neutralized at a dilution of 1:70. Neutralization assays were carried as described in Robert-Guroff, et al. in Techniques in HIV Research Aldovini and Walker eds. pp. 179-185 (Aldrich 1990).
# gp120 Reactivity was in the dot blot assay. Neutralization was with an in
# vitro neutralization assay using the MN isolate of HIV1.
# [7] = system: HIV-1 (MN); assay: HIV-1 (MN) in vitro neutralization by sera of immunized Rhesus monkeys; format: cell-based; conditions: 1 mg in PBS at 0 and 3 weeks, reciprocal serum dilution giving 40% neutralization
# Method: (§1) This experiment was done with Rhesus monkeys that had been primed with various attenuated poxvirus recombinant carrying HIV-1MN genes and boosted with envelope and gag proteins formulated in alum. Six monkeys were used for the studies. Two of the monkeys were immunized with peptomer(419-436) suspended in phosphate-buffered saline (PBS at pH 7.4 without adjuvant) and four were immunized with peptomer(419-436) in alum. Each animal was injected with a single 1 ml bolus containing 1 mg peptomer(419-436) in a subscapular location in order that the immunogen be administered in a lymph node-rich locus. Three weeks after the initial injection, the monkeys were injected again and the final evaluation was performed after an additional three weeks (a total of six weeks from the initial injection).
# The neutralization titers are given as the reciprocal of the dilution of
# serum that gives a 40% neutralization of HIV1 (MN) infection in vitro. A
# negative value means neutralization was not observed at the lowest serum
# dilution tested (1:25). The MN isolate was used because this was the
# strain used to design the peptomer.
# [8] = system: Rhesus monkeys; assay: Immune response of Rhesus monkeys: ELISA titer against the peptomer; format: in vivo; conditions: for ELISA titer 0 weeks: before peptomer immunization
# Method: as §1
# Three weeks following the initial administration of the peptomer(419-436) an ELISA titer against the peptomer of 1:3,200 was detected for the monkeys immunized with peptomer in alum.
# [9] = target: T1, gp120 binding to CD4 (Homo sapiens, UniProt P01730); assay: ELISA: inhibition of gp120 binding to CD4 by peptomer; design: species or system HIV-1; conditions: 500 ng/well recombinant soluble gp120 coated, biotinylated CD4, peptomer prepared without lyophilization
# T1 construct: recombinant soluble CD4 (Genentech); purchased Genentech
# Method: C. Inhibition of gp120 binding to CD4 by peptomer(419-436). The ELISA procedure was the same as above except that 500 ng/well of recombinant soluble gp120 was used to coat each well instead of peptomer. Poly-scrambled peptomer is a peptomer that contains all the amino acids as in peptomer(419-436) in a scrambled order.
# [10] = system: binding of biotinylated CD4 to peptomer(419-436); conditions: 10 μg/200 μl peptomer coated; 1 μg/well biotinylated CD4
# [11] = diagnosis Hodgkins / lymphoma (control)
# [12] = diagnosis Kidney Graft (control)
substance,measurement,setting,value
KIKQIINMWQEVGKAMYA [Peptide 419-436],ELISA Titer of serum sample,[1]; [11],0
same,ELISA Titer of serum sample,[1]; [12],0
same,ELISA Titer of serum sample,[1]; diagnosis NORMAL (control),0
same,ELISA Titer of serum sample,[1]; diagnosis uveitis (control),0
same,HIV-1(+) serum samples found,[1]; of 27 HIV+/AIDS sera,33%
same,HIV-1(+) serum samples found,[1]; positive of 27 HIV+/AIDS sera,9/27
same,α-helix by circular dichroism,"[2]; PBS with 0.03% Brij 35, shoulder at 220 λ",presence of an α-helix
same,helix content,[2],8±7%
same,ability of the peptide monomer to bind CD4,[3],enhanced ability
"Peptomer (419-436): polymer of N-bromoacetyl cysteine-containing peptide monomers KIKQIINMWQEVGKAMYA, residues 419 to 436 of HIV-1 gp120 (also: polymerized via N-bromoacetyl cysteine, site not given here)",gp120 Reactivity,[4]; Freund's adjuvant,0
same,gp120 Reactivity,"[4]; Freund's adjuvant, listed as peptomer (419-436)",not able to recognize gp120
same,gp120 Reactivity,[4]; Ribi's adjuvant,reacted well
same,ELISA Titer of serum sample,[1]; [11],0
same,ELISA Titer of serum sample,[1]; [12],0
same,ELISA Titer of serum sample,[1]; diagnosis NORMAL (control),0
same,false positive,[1]; of 10 non-HIV sera,10%
same,HIV-1(+) serum samples found,[1]; of 27 HIV+/AIDS sera,96%
same,false positive,[1]; positive of 10 non-HIV sera,1/10
same,HIV-1(+) serum samples found,[1]; positive of 27 HIV+/AIDS sera,26/27
same,solubility in 10% acetic acid,[5]; 10% acetic acid,less than 1 mg/ml
same,solubility in buffered saline solutions,[5]; buffered saline solutions,not soluble
same,solubility in aqueous solutions,[5]; peptomer prepared without a lyophilization step,increased solubility
same,solubility in water,[5]; water,only partially soluble
same,Neutralization,[6],None
same,Neutralization,[6]; listed as peptomer (419-436),not able to recognize gp120 or to neutralize HIV-1 infection in vitro
same,HIV-1 (MN) NEUTRALIZATION 6 weeks,[7],40 and 50
same,helix content,[2],31±1%
same,ELISA titer 0 weeks,"[8]; Rhesus monkeys, PBS without adjuvant",0
same,ELISA titer 0 weeks,"[8]; Rhesus monkeys, alum group",0
same,"ELISA titer against the peptomer, three weeks after initial administration","[8]; Rhesus monkeys, peptomer in PBS",No titer was detected
same,Immunogenicity in Rhesus monkeys,[8]; monkeys previously immunized with various HIV-related immunogens including gp160/120,immunogenic
same,inhibition of gp120 binding to CD4,[9]; listed as peptomer,enhanced ability to block binding
same,inhibition of gp120 binding to CD4,[9]; listed as peptomer(419-436),inhibition
recombinant soluble gp120: recombinant soluble HIV-1 envelope glycoprotein gp120,inhibition of biotinylated CD4 binding to peptomer(419-436),[10],inhibition
